Results: publication PMC10458458, “Characterization of Anticancer Effects of the Analogs of DJ4, a Novel Selective Inhibitor of ROCK and MRCK Kinases” (Pharmaceuticals, 2023)

Key:
[1] = tested on: EGFR mutants (G718C, G719S, L858R, etc.); experiment: KINOMEscan competition binding assay; parameters: species or system human; conditions: 10 µM
Source text: (§1) To examine specificity of DJ4 to different human kinases, we performed a KINOMEscan profiling assay (DiscoverX, Fremont, CA, USA). The KINOMEscan assay consists of a panel of more than 480 kinases of different classes (TK/TKL/STE/CK1/AGC/CAMK/CMGC/others), including clinically relevant mutants, atypical kinases, lipid, and pathogen kinases. […] However, we also recognized the limitations of DJ4 that preclude its clinical development and the need for further optimization of the DJ4 chemotype.
(§2) Figure 5 The kinase selectivity profile for DJ4 assessed using KINOMEscan high-throughput assay. […] The red spots (ROCK/MRCK/CDK/FLT3/KIT) indicate kinases with high specificity to DJ4. (C,D) The % inhibition profile of DJ4 with wild-type (WT) and its clinically relevant kinase mutants of RET (rearranged during transfection) tyrosine kinase (C) and EGFR (epidermal growth factor receptor) protein kinase (D).
(§3) The KINOMEscan®, in vitro competition binding assay, was performed by Lead Hunter Discovery Services (DiscoverX Corporation, Fremont, CA, USA) to determine the kinase specificity of DJ4, a novel kinase inhibitor [19, 44]. […] The %Ctrl is calculated as follows: [(DJ4 signal-positive control signal)/(negative control DMSO signal-positive control signal)] x 00. […]

[2] = tested on: RET tyrosine kinase mutants (V804L/V804/M918T); experiment: KINOMEscan competition binding assay; parameters: species or system human; conditions: 10 µM
Source text: as §1, §2, §3

[3] = tested on: MDA-MB-231 breast cancer cells; experiment: Live/dead cell count (Muse); type: cell-based, human; conditions: 24 h
Experimental: Figure 2 DJ4 reduces cell survival and inhibits colony forming ability of the cancer cells. (A) Different NSCLC cells were plated in a 96-well plate to confluence and then treated for 72 h. Cytotoxicity was assessed by MTT assay. The error bars indicate SEM of triplicates. (B) To assess cytotoxicity of DJ4 in breast cancer cells, MDA-MB-231 cells were treated for 24 h with indicated concentrations of DJ4. Percentage of live cells were counted using Muse^TM Live/Dead reagent and analyzed by Muse^TM cell analyzer. Error bars indicate SEM. n = 2. * p < 0.05. (C) DJ4 inhibits colony forming ability of A549 cells treated for 48 h. After a 48-h treatment, cells were seeded with number of cells mentioned in the table and were allowed to grow and form colonies. At the end of 14 days, colonies were stained and counted. Percent surviving fraction was calculated. The figure is the representative of the replicates. (D) The data are summarized in the table and represent the average of three replicates. […]
MDA-MB-231 cells were treated for 24 h with 1 µM, 2.5 µM, 5 µM, and 10 µM concentrations of DJ4. […] Cell number and cell viability were analyzed using Muse^TM Cell Viability reagent and Muse^TM (Millipore, Inc. Burlington, MA, USA) cell analyzer as per the manufacturer’s instructions.

With `O=C1N/C(=N\CCc2ccccc2)S/C1=C/c1c[nH]c2ncccc12` [DJ4] as the molecule, how does the “inhibition of EGFR mutants relative to wild-type form” value [1] read?
Its value is “differential inhibition”.

And the “binding of RET mutants relative to wild-type” value [2]?
The value was “stronger binding”.

What about the cell death ([3]; MDA-MB-231, 1 µM) of the same molecule?
Its cell death is 29%.

What about the cell death ([3]; MDA-MB-231, 10 µM) of the same molecule?
Its cell death is 47%.
